Results on 18 molecules are retold here after patent publication US9216999B2, “Substituted pyrrolo[2,3-h][1,6]naphthyridines and compositions thereof as JAK inhibitors” (priority 2011, dated 2015).

Structures are written as SMILES. A value given as a limit tells only on which side of the number the result lay.

Type in all cases: biochemical
Holding throughout (settings): ATP 100 μM

The target in one assay is JAK1 (Homo sapiens (Human), UniProt P23458). The assay is described as follows: Enzyme assay (Assay Example^a 1), JAK1.
The target of a further assay is JAK2 (Homo sapiens (Human), UniProt O60674). The assay is described as follows: Enzyme assay (Assay Example^a 1), JAK2.
In the next assay the target is JAK3 (Homo sapiens (Human), UniProt P52333). The assay is described as follows: Enzyme assay (Assay Example^a 1), JAK3.
Sequence of JAK3 (P52333 whole entry): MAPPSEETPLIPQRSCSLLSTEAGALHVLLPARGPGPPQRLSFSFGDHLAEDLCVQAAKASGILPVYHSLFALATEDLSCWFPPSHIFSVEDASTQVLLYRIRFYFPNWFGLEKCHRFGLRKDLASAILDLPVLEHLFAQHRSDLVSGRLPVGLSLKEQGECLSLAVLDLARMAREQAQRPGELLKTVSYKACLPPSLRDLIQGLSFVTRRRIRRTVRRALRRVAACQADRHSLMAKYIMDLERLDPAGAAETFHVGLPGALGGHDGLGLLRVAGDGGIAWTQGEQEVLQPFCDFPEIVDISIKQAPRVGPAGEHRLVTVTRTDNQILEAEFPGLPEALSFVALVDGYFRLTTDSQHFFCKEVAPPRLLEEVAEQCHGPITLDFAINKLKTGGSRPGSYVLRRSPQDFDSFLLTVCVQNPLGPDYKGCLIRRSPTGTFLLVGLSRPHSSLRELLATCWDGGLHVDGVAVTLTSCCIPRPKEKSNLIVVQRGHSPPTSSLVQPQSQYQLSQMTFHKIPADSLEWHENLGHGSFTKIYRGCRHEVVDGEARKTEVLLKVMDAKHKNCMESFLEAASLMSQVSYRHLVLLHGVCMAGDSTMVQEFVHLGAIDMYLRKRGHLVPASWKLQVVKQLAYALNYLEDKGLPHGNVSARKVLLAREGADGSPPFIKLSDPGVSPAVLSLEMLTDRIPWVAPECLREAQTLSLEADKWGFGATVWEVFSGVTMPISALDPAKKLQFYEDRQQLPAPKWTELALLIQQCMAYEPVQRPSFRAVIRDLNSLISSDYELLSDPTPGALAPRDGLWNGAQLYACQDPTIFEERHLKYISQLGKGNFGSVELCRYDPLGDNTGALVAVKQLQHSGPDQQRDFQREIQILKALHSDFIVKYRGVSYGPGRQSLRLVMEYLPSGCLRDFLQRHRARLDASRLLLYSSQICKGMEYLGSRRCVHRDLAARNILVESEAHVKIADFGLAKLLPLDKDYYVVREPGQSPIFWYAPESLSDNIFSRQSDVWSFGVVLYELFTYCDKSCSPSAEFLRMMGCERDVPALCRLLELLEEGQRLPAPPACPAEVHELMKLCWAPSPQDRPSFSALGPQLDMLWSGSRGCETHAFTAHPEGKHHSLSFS
For the next assay, the target named is Tyk2 (Homo sapiens (Human), UniProt P29597). The assay is described as follows: Enzyme assay (Assay Example^a 1), Tyk2.
Sequence of Tyk2 (P29597 whole entry): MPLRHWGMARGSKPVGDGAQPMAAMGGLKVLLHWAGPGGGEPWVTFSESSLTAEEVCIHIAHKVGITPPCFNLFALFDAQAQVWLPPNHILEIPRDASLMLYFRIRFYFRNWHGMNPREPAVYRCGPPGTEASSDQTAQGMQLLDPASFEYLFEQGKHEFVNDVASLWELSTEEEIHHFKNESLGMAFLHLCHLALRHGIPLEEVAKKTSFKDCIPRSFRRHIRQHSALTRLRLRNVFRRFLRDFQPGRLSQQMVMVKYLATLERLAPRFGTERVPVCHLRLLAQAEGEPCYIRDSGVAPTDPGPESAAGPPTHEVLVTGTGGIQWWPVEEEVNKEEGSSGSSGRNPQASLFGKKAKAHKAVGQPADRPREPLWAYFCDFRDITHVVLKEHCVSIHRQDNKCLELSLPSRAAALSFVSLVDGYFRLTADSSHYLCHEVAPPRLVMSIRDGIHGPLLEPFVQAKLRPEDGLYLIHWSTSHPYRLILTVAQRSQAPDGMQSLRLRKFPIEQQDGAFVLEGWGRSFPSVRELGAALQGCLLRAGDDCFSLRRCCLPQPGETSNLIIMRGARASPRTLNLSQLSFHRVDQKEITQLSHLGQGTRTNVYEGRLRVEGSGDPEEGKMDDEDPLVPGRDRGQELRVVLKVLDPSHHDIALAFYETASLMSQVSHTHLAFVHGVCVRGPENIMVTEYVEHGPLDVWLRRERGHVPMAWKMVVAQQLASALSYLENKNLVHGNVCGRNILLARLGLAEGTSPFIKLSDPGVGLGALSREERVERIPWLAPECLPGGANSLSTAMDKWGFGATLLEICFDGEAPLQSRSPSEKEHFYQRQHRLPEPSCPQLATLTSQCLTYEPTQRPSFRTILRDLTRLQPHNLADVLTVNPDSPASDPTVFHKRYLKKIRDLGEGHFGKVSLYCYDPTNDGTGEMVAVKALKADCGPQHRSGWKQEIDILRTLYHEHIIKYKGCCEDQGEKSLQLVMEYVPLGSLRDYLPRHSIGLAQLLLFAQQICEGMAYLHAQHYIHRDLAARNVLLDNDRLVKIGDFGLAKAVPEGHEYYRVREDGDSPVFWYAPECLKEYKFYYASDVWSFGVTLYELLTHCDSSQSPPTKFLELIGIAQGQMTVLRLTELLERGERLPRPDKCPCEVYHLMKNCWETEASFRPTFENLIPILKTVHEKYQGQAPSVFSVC

What is called IC50 is the midpoint of a concentration-inhibition curve. A higher IC50 goes with weaker potency. In the case of `c1cc(CN2CCC(c3nnn4cnc5[nH]ccc5c34)CC2)ccn1` [compound 239, 1-[1-(pyridin-4-ylmethyl)piperidin-4-yl]-7H-pyrrolo[3,2-e][1,2,3]triazolo[1,5-c]pyrimidine], the concentration for half-maximal inhibition (IC50) against JAK1 is 0.0081 µM; against JAK2 it was 0.035 µM; against JAK3, 0.61 µM; against Tyk2 it was 0.65 µM.
Regarding `c1cc2c(ncn3nnc(C4CCN(Cc5cscn5)CC4)c23)[nH]1` [compound 240, 4-{[4-(7H-pyrrolo[3,2-e][1,2,3]triazolo[1,5-c]pyrimidin-1-yl)piperidin-1-yl]methyl}thiazole], the IC50 on JAK1 was 0.039 µM; on JAK2, 0.11 µM; against JAK3, 0.6 µM; against Tyk2, > 1 µM.
Regarding `N#Cc1ccc(CN2CCC(c3nnn4cnc5[nH]ccc5c34)CC2)cc1C#N` [compound 242, 4-{[4-(7H-pyrrolo[3,2-e][1,2,3]triazolo[1,5-c]pyrimidin-1-yl)piperidin-1-yl]methyl}phthalonitrile], the IC50 was 0.0065 µM at JAK1, 0.052 µM against JAK2, 0.96 µM against JAK3 and > 1 µM at Tyk2.
For `N#Cc1cc(CN2CCC(c3nnn4cnc5[nH]ccc5c34)CC2)ccc1C(F)(F)F` [compound 243, 5-{[4-(7H-pyrrolo[3,2-e][1,2,3]triazolo[1,5-c]pyrimidin-1-yl)piperidin-1-yl]methyl}-2-(trifluoromethyl)benzonitrile], in that order: 0.044 µM, 0.29 µM, > 1 µM and > 1 µM.
Taken in the same sequence, the figures for `N#Cc1ccc(CN2CCC(c3nnn4cnc5[nH]ccc5c34)CC2)cc1C(F)(F)F` [compound 244, 4-{[4-(7H-pyrrolo[3,2-e][1,2,3]triazolo[1,5-c]pyrimidin-1-yl)piperidin-1-yl]methyl}-2-(trifluoromethyl)benzonitrile] were 0.0054 µM, 0.038 µM, 0.44 µM and 0.79 µM.
Regarding `N#CCN1CCC(c2nnn3cnc4[nH]ccc4c23)CC1` [compound 246, 2-[4-(7H-pyrrolo[3,2-e][1,2,3]triazolo[1,5-c]pyrimidin-1-yl)piperidin-1-yl]acetonitrile], the 50% inhibitory concentration (IC50) is 0.0053 µM on JAK1, 0.019 µM against JAK2, 0.28 µM at JAK3 and 0.14 µM on Tyk2.
Taken in the same sequence, the figures for `N#Cc1ccc(NC[C@H]2CC[C@H](c3nnn4cnc5[nH]ccc5c34)CC2)c2ccccc12` [compound 248, 4-({[trans-4-(7H-pyrrolo[3,2-e][1,2,3]triazolo[1,5-c]pyrimidin-1-yl)cyclohexyl]methyl}amino)-1-naphthonitrile] were 0.041 µM, 0.14 µM, > 1 µM and > 1 µM.
Taken in the same sequence, the figures for `Fc1ccc(NC[C@H]2CC[C@H](c3nnn4cnc5[nH]ccc5c34)CC2)cc1F` [compound 249, N-{[trans-4-(7H-pyrrolo[3,2-e][1,2,3]triazolo[1,5-c]pyrimidin-1-yl)cyclohexyl]methyl}-3,4-difluoroaniline] were 0.017 µM, 0.056 µM, 0.49 µM and 0.86 µM.
As for `Fc1cc(NC[C@H]2CC[C@H](c3nnn4cnc5[nH]ccc5c34)CC2)cc(F)c1F` [compound 250, N-{[trans-4-(7H-pyrrolo[3,2-e][1,2,3]triazolo[1,5-c]pyrimidin-1-yl)cyclohexyl]methyl}-3,4,5-trifluoroaniline], the IC50 was 0.031 µM at JAK1, 0.18 µM against JAK2, > 1 µM at JAK3 and > 1 µM at Tyk2.
With `Fc1ccc(NC[C@H]2CC[C@H](c3nnn4cnc5[nH]ccc5c34)CC2)cc1C(F)(F)F` [compound 251, N-{[trans-4-(7H-pyrrolo[3,2-e][1,2,3]triazolo[1,5-c]pyrimidin-1-yl)cyclohexyl]methyl}-4-fluoro-3-(trifluoromethyl)aniline], the IC50 is 0.031 µM on JAK1, 0.2 µM at JAK2, > 1 µM against JAK3 and > 1 µM on Tyk2.
In the case of `N#Cc1cc(NC[C@H]2CC[C@H](c3nnn4cnc5[nH]ccc5c34)CC2)ccc1F` [compound 252, 5-({[trans-4-(7H-pyrrolo[3,2-e][1,2,3]triazolo[1,5-c]pyrimidin-1-yl)cyclohexyl]methyl}amino)-2-fluorobenzonitrile], the IC50 at JAK1 is 0.017 µM; against JAK2, 0.06 µM; at JAK3, > 1 µM; against Tyk2, > 1 µM.
Take `O=C1SCCC1NC[C@H]1CC[C@H](c2nnn3cnc4[nH]ccc4c23)CC1` (stereo partly drawn) [compound 253, 3-({[trans-4-(7H-pyrrolo[3,2-e][1,2,3]triazolo[1,5-c]pyrimidin-1-yl)cyclohexyl]methyl}amino)dihydrothiophen-2(3H)-one]: the IC50 at JAK1 was 0.0011 µM; against JAK2, 0.0066 µM; against JAK3, 0.14 µM; at Tyk2, 0.044 µM.
Taken in the same sequence, the figures for `c1cc2c(ncn3nnc([C@H]4CC[C@H](CN5CCSC5)CC4)c23)[nH]1` [compound 254, 3-{[trans-4-(7H-pyrrolo[3,2-e][1,2,3]triazolo[1,5-c]pyrimidin-1-yl)cyclohexyl]methyl}thiazolidine] were 0.0071 µM, 0.024 µM, 0.53 µM and 0.16 µM.
For `FC(F)CNC[C@H]1CC[C@H](c2nnn3cnc4[nH]ccc4c23)CC1` [compound 255, N-{[trans-4-(7H-pyrrolo[3,2-e][1,2,3]triazolo[1,5-c]pyrimidin-1-yl)cyclohexyl]methyl}-2,2-difluoroethanamine], in that order: 0.0025 µM, 0.015 µM, 0.24 µM and 0.14 µM.
On to `FC(F)(F)CCNC[C@H]1CC[C@H](c2nnn3cnc4[nH]ccc4c23)CC1` [compound 256, N-{[trans-4-(7H-pyrrolo[3,2-e][1,2,3]triazolo[1,5-c]pyrimidin-1-yl)cyclohexyl]methyl}-3,3,3-trifluoropropan-1-amine], for which the IC50 amounted to 0.015 µM at JAK1, 0.062 µM on JAK2, 0.99 µM at JAK3 and 0.27 µM against Tyk2.
For `OC1CN(C[C@H]2CC[C@H](c3nnn4cnc5[nH]ccc5c34)CC2)C1` [compound 257, 1-{[trans-4-(7H-pyrrolo[3,2-e][1,2,3]triazolo[1,5-c]pyrimidin-1-yl)cyclohexyl]methyl}azetidin-3-ol], in that order: 0.0017 µM, 0.016 µM, 0.49 µM and 0.049 µM.
As for `FC(F)(F)C1CCN(C[C@H]2CC[C@H](c3nnn4cnc5[nH]ccc5c34)CC2)CC1` [compound 258, 1-(trans-4-{[4-(trifluoromethyl)piperidin-1-yl]methyl}cyclohexyl)-7H-pyrrolo[3,2-e][1,2,3]triazolo[1,5-c]pyrimidine], the half-inhibitory concentration (IC50) was 0.012 µM on JAK1, 0.081 µM against JAK2, > 1 µM against JAK3 and 0.74 µM on Tyk2.
Turning to `N#CCNC[C@H]1CC[C@H](c2nnn3cnc4[nH]ccc4c23)CC1` [compound 259, 2-({[trans-4-(7H-pyrrolo[3,2-e][1,2,3]triazolo[1,5-c]pyrimidin-1-yl)cyclohexyl]methyl}amino)acetonitrile], the 50% inhibitory concentration (IC50) at JAK1 was found to be 0.0021 µM; at JAK2, 0.0081 µM; on JAK3, 0.27 µM; against Tyk2, 0.037 µM.
